Assay results published in ChEMBL document CHEMBL1201862, “PubChem BioAssay data set” (2004).
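Each compound was tested at five concentrations against cells in 96-well plates for 48 hours. GI50 marks 50% less growth.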 Activity calls are given as the source filed them. No stated cut-off is given here; in the data, active = GI50 up to about 1.1 µM and inactive = higher. Peptide text beside a SMILES is read from it. * marks the point of attachment. Cbz = O=C(OCc1ccccc1)*; OBn = c1ccc(CO*)cc1

What was measured:
Assay in all cases: NCI-60 cell line screen, 48 h
SF-268 = tested on: SF-268
MOLT-4 = tested on: MOLT-4
SK-MEL-2 = tested on: SK-MEL-2
OVCAR-8 = tested on: OVCAR-8
NCI-H522 = tested on: NCI-H522
HCT-15 = tested on: HCT-15
T47D = tested on: T47D
SF-295 = tested on: SF-295
LOX IMVI = tested on: LOX IMVI
DU-145 = tested on: DU-145
TK-10 = tested on: TK-10
HCC 2998 = tested on: HCC 2998
COLO 205 = tested on: COLO 205
PC-3 = tested on: PC-3
HL-60 = tested on: HL-60
SR = tested on: SR
SK-MEL-5 = tested on: SK-MEL-5
Hs-578T = tested on: Hs-578T
U-251 = tested on: U-251
RXF 393 = tested on: RXF 393

| Compound | GI50 (SF-268) | GI50 (MOLT-4) | GI50 (SK-MEL-2) | GI50 (OVCAR-8) | GI50 (NCI-H522) | GI50 (HCT-15) [µM] | GI50 (T47D) | GI50 (SF-295) | GI50 (LOX IMVI) | GI50 (DU-145) | GI50 (TK-10) | GI50 (HCC 2998) | GI50 (COLO 205) | GI50 (PC-3) | GI50 (HL-60) | GI50 (SR) | GI50 (SK-MEL-5) | GI50 (Hs-578T) | GI50 (U-251) | GI50 (RXF 393) |
| --- | --- | --- | --- | --- | --- | --- | --- | --- | --- | --- | --- | --- | --- | --- | --- | --- | --- | --- | --- | --- |
| CCC1C(=O)C(O)[C@H]2[C@@H]3C(O)CC4=CC(=O)CC[C@]4(C)[C@H]3CC[C@]12C (some centres undefined) | > 50 µM (inactive) | > 50 µM (inactive) | > 50 µM (inactive) | > 50 µM (inactive) | > 50 µM (inactive) | > 50 | > 50 µM (inactive) | > 50 µM (inactive) | > 50 µM (inactive) | > 50 µM (inactive) | > 50 µM (inactive) | > 50 µM (inactive) | > 50 µM (inactive) | > 50 µM (inactive) | > 50 µM (inactive) | > 50 µM (inactive) | > 50 µM (inactive) | > 50 µM (inactive) | > 50 µM (inactive) | – |
| Cc1cc2c(C(C)C)c(O)c(O)c(/C=N/c3cc(C(F)(F)F)ccc3Cl)c2c(O)c1-c1c(C)cc2c(C(C)C)c(O)c(O)c(/C=N/c3cc(C(F)(F)F)ccc3Cl)c2c1O | 37.2 µM (inactive) | – | 35.3 µM (inactive) | 44.5 µM (inactive) | 21.5 µM (inactive) | 34.8 | 29.6 µM (inactive) | – | 22.6 µM (inactive) | > 100 µM (inactive) | 60.7 µM (inactive) | 62.7 µM (inactive) | 31.2 µM (inactive) | 35 µM (inactive) | 26.9 µM (inactive) | 25.4 µM (inactive) | 23.6 µM (inactive) | > 100 µM (inactive) | 19.3 µM (inactive) | 28.8 µM (inactive) |
| CCOC(=O)C(=O)/C(=C\NC(=S)Nc1ccccc1Cl)C(=O)OCC | > 100 µM (inactive) | > 100 µM (inactive) | > 100 µM (inactive) | > 100 µM (inactive) | > 100 µM (inactive) | > 100 | > 100 µM (inactive) | > 100 µM (inactive) | > 100 µM (inactive) | > 100 µM (inactive) | – | > 100 µM (inactive) | > 100 µM (inactive) | > 100 µM (inactive) | > 100 µM (inactive) | > 100 µM (inactive) | > 100 µM (inactive) | > 100 µM (inactive) | > 100 µM (inactive) | > 100 µM (inactive) |
| COC(=O)[C@]1(NC(=O)c2ccccc2)C[C@H]1C=O | > 84.5 µM (inactive) | > 64.7 µM (inactive) | > 100 µM (inactive) | > 100 µM (inactive) | > 61.1 µM (inactive) | > 90.6 | > 100 µM (inactive) | > 78.5 µM (inactive) | 98.6 µM (inactive) | > 100 µM (inactive) | > 100 µM (inactive) | 57.7 µM (inactive) | > 100 µM (inactive) | > 100 µM (inactive) | – | 28.2 µM (inactive) | > 100 µM (inactive) | > 55.5 µM (inactive) | > 100 µM (inactive) | > 100 µM (inactive) |
| N#CC12C(=O)NC(=O)C1(C#N)C1C=CC2CC1 (centres undefined) | > 100 µM (inactive) | > 100 µM (inactive) | – | > 100 µM (inactive) | > 100 µM (inactive) | > 100 | > 100 µM (inactive) | > 100 µM (inactive) | > 100 µM (inactive) | > 100 µM (inactive) | > 100 µM (inactive) | – | > 100 µM (inactive) | > 100 µM (inactive) | > 100 µM (inactive) | > 100 µM (inactive) | > 100 µM (inactive) | > 100 µM (inactive) | > 100 µM (inactive) | > 100 µM (inactive) |
| O=C1C(O)=C(CCCCCCCCC2CCCCC2)C(=O)c2ccccc21 [MENOCTONE] | 7.03 µM (inactive) | 2.58 µM (inactive) | 11.8 µM (inactive) | 8.67 µM (inactive) | 6.24 µM (inactive) | 4.69 | 5.5 µM (inactive) | 6.98 µM (inactive) | 3.6 µM (inactive) | 7.45 µM (inactive) | 14.7 µM (inactive) | 8.69 µM (inactive) | 8.45 µM (inactive) | 5.09 µM (inactive) | 1 µM (active) | 6.4 µM (inactive) | 10.4 µM (inactive) | 12.4 µM (inactive) | 5.71 µM (inactive) | – |
| Cc1cc(C(=O)CCCCOc2ccc(C3=NCCO3)cc2)c(C)n1C | 52.1 µM (inactive) | 14.7 µM (inactive) | 28.7 µM (inactive) | 33.2 µM (inactive) | 50.7 µM (inactive) | 38.6 | 23 µM (inactive) | 34.4 µM (inactive) | – | 24.3 µM (inactive) | 44.9 µM (inactive) | – | 52.4 µM (inactive) | 19.9 µM (inactive) | 0.0883 µM (active) | 29.4 µM (inactive) | 15.7 µM (inactive) | 98.2 µM (inactive) | 31.3 µM (inactive) | 13.2 µM (inactive) |
| O=C1c2cc([N+](=O)[O-])ccc2NC2C(O)c3ccccc3N12 (centres undefined) | 27.2 µM (inactive) | 19.7 µM (inactive) | 33.3 µM (inactive) | 23.3 µM (inactive) | 16.2 µM (inactive) | 29.3 | 14.2 µM (inactive) | 30.1 µM (inactive) | 43.8 µM (inactive) | 9.55 µM (inactive) | 13.2 µM (inactive) | 47.9 µM (inactive) | 61.8 µM (inactive) | 53 µM (inactive) | – | 19.3 µM (inactive) | 38 µM (inactive) | 0.706 µM (active) | 23.5 µM (inactive) | 16.9 µM (inactive) |
| COC(=O)CC[C@@H](C)[C@H]1CC[C@H]2[C@@H]3CC[C@@H]4C[C@H](O)CC[C@]4(C)[C@H]3CC[C@]12C | 21.6 µM (inactive) | 14.5 µM (inactive) | 18.7 µM (inactive) | 19 µM (inactive) | 18.3 µM (inactive) | 17.1 | 19.4 µM (inactive) | 18.2 µM (inactive) | 18.7 µM (inactive) | 17.7 µM (inactive) | 20.3 µM (inactive) | – | 19.5 µM (inactive) | 17.3 µM (inactive) | 15 µM (inactive) | 14.9 µM (inactive) | 16.9 µM (inactive) | 23.1 µM (inactive) | 20.7 µM (inactive) | 18.2 µM (inactive) |
| O=C1N=C2SC=C(NC(=S)Nc3ccccc3)N2NC12c1ccccc1-c1ccccc12 | > 10 µM (inactive) | > 10 µM (inactive) | – | > 10 µM (inactive) | > 10 µM (inactive) | > 10 | 5.7 µM (inactive) | > 10 µM (inactive) | > 10 µM (inactive) | > 10 µM (inactive) | > 10 µM (inactive) | > 10 µM (inactive) | > 10 µM (inactive) | > 10 µM (inactive) | > 10 µM (inactive) | > 10 µM (inactive) | > 10 µM (inactive) | > 10 µM (inactive) | – | > 10 µM (inactive) |
| C[N+](C)(C)C(C1=CCCC1=O)c1ccccc1 (centres undefined) | 18.6 µM (inactive) | 24.1 µM (inactive) | 84.9 µM (inactive) | 25 µM (inactive) | 18.7 µM (inactive) | 20.2 | 43.8 µM (inactive) | > 100 µM (inactive) | 18.7 µM (inactive) | 57.5 µM (inactive) | 48.5 µM (inactive) | – | > 100 µM (inactive) | 35.5 µM (inactive) | 25.8 µM (inactive) | 15.3 µM (inactive) | > 100 µM (inactive) | 33.4 µM (inactive) | 20.6 µM (inactive) | 21 µM (inactive) |
| CCOC(=O)CN1CCNCCN(CC(=O)OCC)CCNCC1 | – | > 100 µM (inactive) | > 100 µM (inactive) | > 100 µM (inactive) | > 100 µM (inactive) | > 100 | > 100 µM (inactive) | > 100 µM (inactive) | > 100 µM (inactive) | > 100 µM (inactive) | > 100 µM (inactive) | > 100 µM (inactive) | > 100 µM (inactive) | > 100 µM (inactive) | > 100 µM (inactive) | 78.7 µM (inactive) | > 100 µM (inactive) | > 100 µM (inactive) | > 100 µM (inactive) | > 100 µM (inactive) |
| COC(=O)CNC(=O)C(C)NC(=O)C(CC(=O)OCc1ccccc1)NC(=O)OCc1ccccc1 (stereo not drawn) (Cbz-Asp(OBn)-Ala-Gly-OMe; configuration not given here) | – | 13.7 µM (inactive) | 65.5 µM (inactive) | 81.8 µM (inactive) | 34.3 µM (inactive) | 53.7 | 21.6 µM (inactive) | 33.3 µM (inactive) | – | 93.5 µM (inactive) | 20.5 µM (inactive) | 32.9 µM (inactive) | 38.4 µM (inactive) | 24 µM (inactive) | – | 35.5 µM (inactive) | 17 µM (inactive) | 43.9 µM (inactive) | 47 µM (inactive) | 13.8 µM (inactive) |
| CCOC(=O)/C=C(/C(=O)OCC)n1ccc(=O)n(Cc2cn(COCCOC(C)=O)nn2)c1=O | 18.2 µM (inactive) | 17.3 µM (inactive) | 25.2 µM (inactive) | 16.4 µM (inactive) | 4.54 µM (inactive) | 20.3 | 32.1 µM (inactive) | > 100 µM (inactive) | 20.9 µM (inactive) | 40.2 µM (inactive) | 16.8 µM (inactive) | 17.8 µM (inactive) | 4.91 µM (inactive) | 35.4 µM (inactive) | – | 19.4 µM (inactive) | 25.8 µM (inactive) | 26.4 µM (inactive) | 28 µM (inactive) | 25.6 µM (inactive) |
| Fc1ccc(/N=C/C=C/Nc2ccc(F)cc2)cc1 | 13.4 µM (inactive) | 12.9 µM (inactive) | 13.6 µM (inactive) | 12.9 µM (inactive) | 13.5 µM (inactive) | 0.31 | 6.37 µM (inactive) | 8.28 µM (inactive) | 0.817 µM (active) | 13.5 µM (inactive) | – | 3.05 µM (inactive) | 1.55 µM (inactive) | 8.91 µM (inactive) | 2.26 µM (inactive) | 2.44 µM (inactive) | 4.84 µM (inactive) | 19.9 µM (inactive) | 7.41 µM (inactive) | 15.8 µM (inactive) |
